Source: US20140335172A1, “OPHTHALMOLOGICAL RINSING AGENT AND METHODS THEREFOF” (priority 2013, published 2014)
Where two headings read alike, the source gives them in different places.

Tests used:
[1] = cited from earlier work; for Specific Gravity, at 25° C.: silicone oil grade given by kinematic viscosity, cSt
[2] = cited from earlier work; for Kinematic Viscosity (Sticky**): Table 2
[3] = cited from earlier work
[4] = cited from earlier work; remark: listed apart in the source
[5] = cited from earlier work; remark: listed apart in the source
[6] = Relative efficacy ranking of oil solvents; details: relative rank, 1 = most efficient
[7] = Relative volatility ranking of oil solvents; type: physicochemical; details: relative rank, 1 = most volatile
[8] = Relative cell toxicity ranking of oil solvents; type: cell-based; design: key: 1 = most efficient/toxic/proliferative/volatile; details: relative rank, 1 = most toxic
[9] = Relative cell proliferation ranking of oil solvents; type: cell-based; details: relative rank, 1 = most proliferative
rMC-1 cells = test: MTS cell viability, rMC-1, 1 hr incubation; type: cell-based; details: rMC-1 Müller cells, n=3
Text: The innermost cell layer of the retina is called the retinal ganglion cell layer. It consists mainly of retinal ganglion cells, with some Müller cells and also some blood capillaries. This cell layer is located closest to the vitreous anatomically and thus is almost in direct contact with the rinsing agent in this study. Therefore, a retinal ganglion cell line (RGC-5) and a rat Müller cell line were used in this in-vitro cell culture study to evaluate the biocompatibility of the rinsing agent in accordance with at least one embodiment of this application.

RGC-5 = details: RGC-5, 30 minutes, n=3
Experimental: In the study, CellTiter 96® AQueous non-radioactive cell proliferation assay (MTS) and Cytotoxicity Detection Kit (LDH assay) were used to test for the cell viability and cell death of the RGC-5 and rMC-1 cells after incubation with the rinsing agent (FIG. 17). The major component of the rinsing agent is octamethyltrisiloxane (1.0 cSt Silicone Oil [SO]) with hydrophobic surfactant DC749 (Dow Corning). Rinsing agents with different concentration of DC749 (0%, 5%, 10% in vol.) were included. The incubation time was designed as 1 hr because the proposed use of the rinsing agent would not be longer than 15 mins in-vivo and therefore a 1 hr study would be more than sufficient in deciding the effect of the proposed rinsing agent on the cells in the eye cavity. Hank's Balanced salt solution (HBSS) was used as the experimental control. Two liquids, perfluorodecalin (PFD) and F6H8, were also included in this study. PFD is a widely accepted short-term used intraoperative adjunct for flattening the folded retina during retinal surgery. F6H8 is a key component of Heavy Silicone Oil (HSO), which has been used as a long-term intraocular tamponade.
In a study similar to 6.4 above, the cell viability and the percentage cell death of RGC-5 were investigated in a 30-minute experiment.

[10] = at 25 ° C., Table 4 surfactants
[11] = silicone oil grade given by kinematic viscosity, cSt

## CCCCCCCCCCCCC(F)(F)C(F)(F)C(F)(F)C(F)(F)C(F)(F)C(F)(F)F [F6H12]
[1]; at 25° C., Table 3
  Density (g/cm^3) at 25° C.: 1.25 g/mL
[2]
  Dynamic Viscosity (mPa · s) at 25° C.: 6.99 mPa · s
[3]; Table 3
  Surface Tension (mN/m): 21.1 mN/m

## C[Si]1(C)O[Si](C)(C)O[Si](C)(C)O[Si](C)(C)O1 [Octamethylcyclotetrasiloxane]
[1]; [10]
  Density (g/cm^3) at 25° C.: 0.95 g/mL
[4]
  Henry's Law Constant, Pa m^3/mol at 25° C.: 1,214,000 Pa m^3/mol
[5]
  Vapor Pressure, Pa at 25° C.: 132 Pa

## FC(F)(F)C(F)(F)C(F)(F)C(F)(F)C(F)(F)C(F)(F)C(F)(F)C(F)(F)Br [PFOB]
[6]
  Efficacy: 3
[7]
  Volatility: 4
[8]
  Cell toxicity: 1
[9]
  Cell proliferation: 3
[1]; at 25° C., Table 3
  Density (g/cm^3) at 25° C.: 1.930 g/mL
[2]
  Kinematic Viscosity (Sticky**): 1.93 cSt
  Dynamic Viscosity (mPa · s) at 25° C.: 1.93 mPa · s
[3]; Table 3
  Surface Tension (mN/m): 18 mN/m
[5]; 37° C.
  Vapor Pressure (Torr): 10.5 (37° C.) Torr

## C[Si]1(C)O[Si](C)(C)O[Si](C)(C)O[Si](C)(C)O[Si](C)(C)O1 [Decamethylcyclopentasiloxane]
[1]; [10]
  Density (g/cm^3) at 25° C.: 0.954 g/mL
[4]
  Henry's Law Constant, Pa m^3/mol at 25° C.: 3,342,000 Pa m^3/mol
[5]
  Vapor Pressure, Pa at 25° C.: 33.2 Pa

## CCCCCCCCC(F)(F)C(F)(F)C(F)(F)C(F)(F)C(F)(F)C(F)(F)F [F6H8]
[6]
  Efficacy: 3
[7]
  Volatility: 3
[8]
  Cell toxicity: 2
[9]
  Cell proliferation: 2
rMC-1 cells
  cell viability relative to HBSS, MTS assay: significant decrease in cell viability
[1]; at 25° C., Table 3
  Density (g/cm^3) at 25° C.: 1.331 g/mL
[2]
  Kinematic Viscosity (Sticky**): 3.44 cSt
  Dynamic Viscosity (mPa · s) at 25° C.: 3.44 mPa · s
[3]; Table 3
  Surface Tension (mN/m): 19.65 mN/m
[5]; 25° C.
  Vapor Pressure (Torr): <1 (25° C.) Torr

## CCCCCCC(F)(F)C(F)(F)C(F)(F)C(F)(F)C(F)(F)C(F)(F)F [F6H6]
[1]; at 25° C., Table 3
  Density (g/cm^3) at 25° C.: 1.386 g/mL
[2]
  Dynamic Viscosity (mPa · s) at 25° C.: 2.38 mPa · s
[3]; Table 3
  Surface Tension (mN/m): 20.0 mN/m
[5]; 25° C.
  Vapor Pressure (Torr): <1 (25° C.) Torr

## C[Si](C)(C)O[Si](C)(C)C [Hexamethyldisiloxane]
RGC-5; listed as 0.65 mPa·s SO
  cell viability relative to HBSS, MTS assay: significant decrease of cell viability
RGC-5; listed as LMW-SO 0.65 mPa·s
  cell viability relative to HBSS, MTS assay: reducing the metabolism
[1]; 20° C., Table 3
  Density: 0.764 g/mL
[1]; at 25° C.
  Specific Gravity, at 25° C.: 0.760
[2]
  Dynamic Viscosity (mPa · s) at 25° C.: 0.65 mPa · s
[3]; Table 3
  Surface Tension (mN/m): 15.9 mN/m
[3]; [11]
  Surface Tension (mN/m): 15.9 mN/m
[5]; 37° C.
  Vapor Pressure (Torr): 42.2 (37° C.) Torr

## C[Si]1(C)O[Si](C)(C)O[Si](C)(C)O[Si](C)(C)O[Si](C)(C)O[Si](C)(C)O1 [Dodecamethylcyclobexasiloxane]
[1]; [10]
  Density (g/cm^3) at 25° C.: 0.963 g/mL
[4]
  Henry's Law Constant, Pa m^3/mol at 25° C.: 14,667 Pa m^3/mol
[5]
  Vapor Pressure, Pa at 25° C.: 4.6 Pa

## CCCCCC(F)(F)C(F)(F)C(F)(F)C(F)(F)F [F4H5]
[6]
  Efficacy: 2
[7]
  Volatility: 2
[1]; at 25° C., Table 3
  Density (g/cm^3) at 25° C.: 1.284 g/mL
[2]
  Kinematic Viscosity (Sticky**): 1.05 cSt
  Dynamic Viscosity (mPa · s) at 25° C.: 1.05 mPa · s
[3]; Table 3
  Surface Tension (mN/m): 17.43 mN/m
[5]; 37° C.
  Vapor Pressure (Torr): 25.1 (37° C.) Torr

## C[Si](C)(C)O[Si](C)(C)O[Si](C)(C)C [Octamethyltrisiloxane]
[1]; at 25° C., Table 3
  Density (g/cm^3) at 25° C.: 0.818 g/mL
[1]; at 25° C.
  Specific Gravity, at 25° C.: 0.816
[2]
  Dynamic Viscosity (mPa · s) at 25° C.: 1.0 mPa · s
[3]; Table 3
  Surface Tension (mN/m): 17.4 mN/m
[3]; [11]
  Surface Tension (mN/m): 17.4 mN/m
[5]; 25° C.
  Vapor Pressure (Torr): 4 (25° C.) Torr

## O [H2O]
[1]; at 25° C., Table 3
  Density (g/cm^3) at 25° C.: 0.970 g/mL
[2]
  Dynamic Viscosity (mPa · s) at 25° C.: 0.89 mPa · s
[3]; Table 3
  Surface Tension (mN/m): 72 mN/m
[5]; 37° C.
  Vapor Pressure (Torr): 46.9 (37° C.) Torr
